According to patent US20180037568A1, “MODULATORS OF METHYL MODIFYING ENZYMES, COMPOSITIONS AND USES THEREOF” (Constellation Pharmaceuticals, Inc., priority 2015, published 2018):
pEC50, pIC50: −log10 of the molar value. Where two headings read alike, the source gives them in different places.

What was measured:
[1] = target: EZH2 (Homo sapiens, UniProt Q15910); assay: EZH2 nuc BSA Brij 1.5 (IC50): rPRC2, biotinylated oligonucleosome substrate, 3H SAM FlashPlate; type: biochemical
Description: EZH2 Nuc BSA Brij 1.5 (IC50):
Assays were carried out by mixing rPRC2 together with biotinylated oligonucleosome substrates in the presence of the radio-labeled enzyme co-factor, S-adenosyl-L-methionine (^3H SAM) (Perkin Elmer) and monitoring the enzymatically mediated transfer of tritiated methyl groups from ^3H SAM to histone lysine residues. The amount of resulting tritiated methyl histone product was measured by first capturing the biotinylated oligonucleosomes in streptavidin (SAV) coated FlashPlates (Perkin Elmer), followed by a wash step to remove un-reacted ^3H SAM, and then counting on a TopCount NXT 384 well plate scintillation counter (Perkin Elmer). The final assay conditions for EZH2 were as follows: 50 mM Tris Buffer pH 8.5, 1 mM DTT, 69 μM Brij-35 detergent, 5.0 mM MgCl2, 0.1 mg/mL BSA, 0.2 μM ^3H SAM, 0.2 μM biotinylated oligonucleosomes, 3.6 μM H3K27me3 peptide and 2 nM EZH2.
Compound IC50 Measurements were Obtained as Follows:
Compounds were first dissolved in 100% DMSO as 10 mM stock solutions. Ten point dose response curves were generated by dispensing varying amounts of the 10 mM compound solution in 10 wells of the 384 well plate (Echo; Labcyte), pure DMSO was then used to backfill the wells to insure all wells have the same amount of DMSO. A 12.5 μL volume of the HMT enzyme, H3K27me3 peptide and oligonucleosome substrate in assay buffer was added to each well of the assay plate using a Multidrop Combi (ThermoFisher). Compounds were pre-incubated with the enzyme for 20 min, followed by initiation of the methyltransferase reaction by addition of 12.5 μL of ^3H SAM in assay buffer (final volume=25 μL). The final concentrations of compounds ranged from a top default concentration of 80 μM down to 0.16 μM in ten 2-fold dilution steps. Reactions were carried out for 60 minutes and quenched with 20 μL per well of 1.96 mM SAH, 50 mM Tris pH 8.5, 200 mM EDTA. Stopped reactions were transferred to SAV coated Flashplates (Perkin Elmer), incubated for 120 min, washed with a plate washer, and then read on the TopCount NXT (1.0 min/well) to measure the amount of methyl histone product formed during the reaction. The amount of methyl histone product was compared with the amount of product formed in the 0% and 100% inhibition control wells allowing the calculation of % Inhibition in the presence of the individual compounds at various concentrations. IC50's were computed using a 4 parameter fit non-linear curve fitting software package (XLFIT, part of the database package, ActivityBase (IDBS)) where the four parameters were IC50, Hill slope, pre-transitional baseline (0% INH), and post-transitional baseline (100% INH); with the latter two parameters being fixed to zero and 100%, respectively, by default.

[2] = tested on: H3K27me3 mark; assay: H3K27me3 Alpha Hela Assay (AlphaLISA); type: cell-based; conditions: Hela cells, read-out: EZH2 Cell H3K27me3 Alpha HeLa (EC50 K27me3)
Description: EC50 Measurements for Inhibitors in HeLa Cell Assays
H3K27me3 Alpha Hela Assay (AlphaLISA). Ten different doses of each test compound (in a series of 3-fold dilutions) were plated in duplicate 384-well tissue culture treated plates (Catalog #781080; Greiner Bio One; Monroe, N.C.). Hela cells grown in culture were trypsinized and counted using a Countess® cell counter (Catalog # C10281; Life Technologies, Grand Island, N.Y.). Cell were diluted to 67,000 cells per mL in 10% DMEM (Catalog #10569-010 Life Technologies, Grand Island, N.Y.) and 15 μL (1,000 cells) were plated into each well using the Biotek MicroFlo™ Select Dispenser (BioTek Instruments, Inc. Vermont, USA),) of the 384-well plate. Plates were incubated at 37° C./5% CO2 for 72 hrs. One of the duplicate plates was processed for HeLa assay and the other for viability.
To the plate processed for AlphaLISA was added 5 μL per well Cell-Histone Lysis buffer (1×) (Catalog # AL009F1 Perkin Elmer; Waltham, Mass.) and the plate was incubated at RT for 30 minutes on a plate shaker with low speed (Model#4625-Q Thermo Scientific; Waltham, Mass.). Then, 10 μL per well Histone Extraction buffer (catalog # AL009F2; Perkin Elmer; Waltham, Mass.) was added and the plate further incubated at RT for 20 min on plate shaker with low speed. To each well was then added 10 μL per well of a 5× mix of anti-K27me3 acceptor beads plus Biotinylated anti-Histone H3 (C-ter) Antibody (diluted to 3 nM final) (Catalog #AL118 Perkin Elmer; Waltham, Mass.). Dilution of the acceptor beads and then anti-Histone H3 was with 1× Histone Detection buffer (Catalog # AL009F3 Perkin Elmer; Waltham, Mass.) which was produced diluted from the 10× stock provided. The plate was sealed with an aluminum plate sealer and incubated at 23° C. for 60 min. We then added 10 μL 5× solution of Streptavidin Donor beads (Catalog #6760002 Perkin Elmer; Waltham, Mass.) (20 μg/mL final in 1× Histone Detection Buffer), sealed the plate with Aluminum plate sealer and incubated at 23° C. for 30 min. The plates were then read using an EnVision-Alpha Reader (model #2104 Perkin Elmer; Waltham, Mass.).
Data from both assays was analyzed using Assay Assistant (Constellation Pharmaceuticals In-house product) and Activity Base (IDBS Ltd, Surrey, UK) template. Data files were imported to Assay Assistant and assay conditions were specified. A unique Analysis ID was created and the data files exported to Activity Base. An analysis template was created on Activity Base to measure dose-dependent inhibition of H3K27me3 mark and cell viability respectively. Readout of DMSO wells were used to normalize the data. Resulting curves were fitted using Activity base software Model 205 (IDBS Ltd, Surrey, UK). The data was checked for quality, validated and integrated in excel format using SARview (IDBS Ltd, Surrey, UK).

[3] = target: T1, PRC2 containing wt EZH2 (Homo sapiens, UniProt Q15910); assay: EZH2 pep BSA Brij 4.0 LowE (IC50): 3H-SAM incorporation into biotinylated H3 peptide; type: biochemical; conditions: EZH2 pep BSA Brij 4.0 LowE (IC50), 20 pM PRC2 wt EZH2, 0.9 μM 3H-SAM, biotinylated H3 peptide substrate, 2 μM H3K27me3 activating peptide
T1 construct: made in house
Description: EZH2 Pep BSA Brij 4.0 LowE (IC50):
Compound potencies were assessed through incorporation of ^3H-SAM into a biotinylated H3 peptide. Specifically, PRC2 containing wt EZH2 (20 pM), (pentameric complexes prepared in-house) was pre-incubated with ^3H-SAM (0.9 μM), 2 μM H3K27me3 activating peptide (H2N-RKQLATKAAR(Kme3)SAPATGGVKKP-amide) and compounds (as 10 point duplicate dose response titrations in DMSO, final assay 0.8% DMSO (v/v)) for 120 min in 50 mM Tris (pH 8.5), 1 mM DTT, 0.07 mM Brij-35, 0.1% BSA, and 0.8% DMSO in a total volume of 12.5 μl. Reaction was initiated with biotinylated H3 substrate peptide (H2N-RKQLATKAAR(Kme1)SAPATGGVKKP-NTPEGBiot) as a 2 μM stock in 12.5 μl of buffer and allowed to react at room temperature for 5 h. Quenching was accomplished by addition of 20 μl of STOP solution (50 mM Tris (pH 8.5), 200 mM EDTA, 2 mM SAH). 35 μl of the quenched solution was transferred to Streptavidin Flashplates, incubated overnight, washed, and read in a TopCount Reader (Perkin Elmer). IC50s were calculated relative to fully active and no enzyme control wells using non-linear least square four parameter fits.

[4] = EZH2 nuc BSA Brij 1.5 (IC50), 2 nM EZH2, 0.2 μM biotinylated oligonucleosomes, 0.2 μM 3H SAM, 3.6 μM H3K27me3 peptide

T1 sequence (Q15910 whole entry): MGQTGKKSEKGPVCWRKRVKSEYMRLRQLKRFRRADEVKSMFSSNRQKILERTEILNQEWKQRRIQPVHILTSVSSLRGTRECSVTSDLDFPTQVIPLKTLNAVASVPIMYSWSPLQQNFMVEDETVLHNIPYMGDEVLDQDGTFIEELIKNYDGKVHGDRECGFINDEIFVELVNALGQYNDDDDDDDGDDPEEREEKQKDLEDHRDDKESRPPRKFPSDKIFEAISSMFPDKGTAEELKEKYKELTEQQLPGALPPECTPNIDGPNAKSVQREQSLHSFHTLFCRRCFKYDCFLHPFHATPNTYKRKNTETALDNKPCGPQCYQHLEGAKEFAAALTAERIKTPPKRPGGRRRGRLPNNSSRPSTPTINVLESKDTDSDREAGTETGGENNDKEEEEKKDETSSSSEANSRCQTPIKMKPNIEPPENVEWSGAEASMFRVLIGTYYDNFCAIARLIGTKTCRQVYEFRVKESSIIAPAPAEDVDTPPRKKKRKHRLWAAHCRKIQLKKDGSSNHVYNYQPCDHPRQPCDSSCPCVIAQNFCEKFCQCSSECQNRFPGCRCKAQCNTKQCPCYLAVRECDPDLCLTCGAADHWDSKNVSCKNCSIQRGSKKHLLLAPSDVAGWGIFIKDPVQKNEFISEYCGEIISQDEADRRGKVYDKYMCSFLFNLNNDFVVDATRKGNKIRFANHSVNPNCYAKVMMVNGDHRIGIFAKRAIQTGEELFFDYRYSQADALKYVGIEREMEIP
T1 sequence (O75530 whole entry partner): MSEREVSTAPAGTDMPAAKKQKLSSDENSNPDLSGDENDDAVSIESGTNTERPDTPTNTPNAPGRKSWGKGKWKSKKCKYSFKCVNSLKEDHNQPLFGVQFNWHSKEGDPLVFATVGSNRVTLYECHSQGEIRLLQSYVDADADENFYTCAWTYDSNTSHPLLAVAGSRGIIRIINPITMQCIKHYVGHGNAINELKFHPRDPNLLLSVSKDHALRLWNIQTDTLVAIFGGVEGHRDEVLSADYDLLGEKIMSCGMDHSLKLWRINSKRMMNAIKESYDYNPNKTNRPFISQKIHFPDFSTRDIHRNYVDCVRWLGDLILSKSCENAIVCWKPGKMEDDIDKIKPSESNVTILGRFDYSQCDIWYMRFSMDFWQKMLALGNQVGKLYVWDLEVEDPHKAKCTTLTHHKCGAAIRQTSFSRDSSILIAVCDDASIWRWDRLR
T1 sequence (Q15022 whole entry partner): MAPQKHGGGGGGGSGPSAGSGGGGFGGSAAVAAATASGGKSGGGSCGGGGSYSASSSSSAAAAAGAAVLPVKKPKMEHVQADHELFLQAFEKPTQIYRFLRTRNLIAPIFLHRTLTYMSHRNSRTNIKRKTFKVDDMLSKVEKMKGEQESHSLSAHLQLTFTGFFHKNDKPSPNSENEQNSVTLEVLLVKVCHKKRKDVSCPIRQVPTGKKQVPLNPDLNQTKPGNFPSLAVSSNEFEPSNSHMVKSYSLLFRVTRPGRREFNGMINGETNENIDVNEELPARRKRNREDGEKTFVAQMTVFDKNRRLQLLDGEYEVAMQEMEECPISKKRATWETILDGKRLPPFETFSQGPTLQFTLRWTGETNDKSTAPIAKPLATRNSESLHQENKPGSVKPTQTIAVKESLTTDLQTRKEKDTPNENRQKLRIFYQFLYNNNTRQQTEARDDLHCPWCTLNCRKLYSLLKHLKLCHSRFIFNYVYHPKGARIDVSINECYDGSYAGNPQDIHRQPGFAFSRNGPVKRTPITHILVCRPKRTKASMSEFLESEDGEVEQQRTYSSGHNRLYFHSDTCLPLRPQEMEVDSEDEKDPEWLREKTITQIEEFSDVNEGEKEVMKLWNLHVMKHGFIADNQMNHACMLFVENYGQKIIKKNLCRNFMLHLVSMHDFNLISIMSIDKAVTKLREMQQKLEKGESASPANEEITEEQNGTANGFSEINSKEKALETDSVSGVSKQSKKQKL
T1 sequence (Q09028 whole entry partner): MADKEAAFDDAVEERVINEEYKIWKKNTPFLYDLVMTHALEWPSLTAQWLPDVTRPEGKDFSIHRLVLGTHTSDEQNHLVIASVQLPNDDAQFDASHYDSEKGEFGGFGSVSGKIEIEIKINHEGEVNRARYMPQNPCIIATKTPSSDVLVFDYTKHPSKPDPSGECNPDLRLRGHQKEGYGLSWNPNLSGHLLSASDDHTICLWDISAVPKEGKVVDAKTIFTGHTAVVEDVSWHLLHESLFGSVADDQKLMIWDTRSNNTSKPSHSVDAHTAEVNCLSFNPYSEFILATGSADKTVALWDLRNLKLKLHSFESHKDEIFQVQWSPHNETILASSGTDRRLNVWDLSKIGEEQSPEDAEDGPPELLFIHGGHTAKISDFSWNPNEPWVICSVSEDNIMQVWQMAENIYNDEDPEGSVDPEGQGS
T1 sequence (Q6ZN18 whole entry partner): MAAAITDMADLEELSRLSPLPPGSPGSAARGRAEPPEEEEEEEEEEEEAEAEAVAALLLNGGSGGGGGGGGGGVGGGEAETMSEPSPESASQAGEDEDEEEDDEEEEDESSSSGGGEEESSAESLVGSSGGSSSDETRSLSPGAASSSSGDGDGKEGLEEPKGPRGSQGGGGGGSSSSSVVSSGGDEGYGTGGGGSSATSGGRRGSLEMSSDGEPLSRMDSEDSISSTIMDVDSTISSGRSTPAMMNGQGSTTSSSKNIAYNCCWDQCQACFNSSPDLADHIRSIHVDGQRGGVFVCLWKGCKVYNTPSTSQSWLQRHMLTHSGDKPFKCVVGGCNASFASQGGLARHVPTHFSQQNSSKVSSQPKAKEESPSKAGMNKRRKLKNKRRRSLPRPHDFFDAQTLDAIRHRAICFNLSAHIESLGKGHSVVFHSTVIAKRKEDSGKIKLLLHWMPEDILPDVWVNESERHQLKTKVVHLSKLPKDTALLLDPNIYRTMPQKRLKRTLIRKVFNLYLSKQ
EZH2, sequence (Q15910 whole entry): as the sequence (Q15910 whole entry) above
EZH2, sequence (O75530 whole entry partner): as the sequence (O75530 whole entry partner) above
EZH2, sequence (Q15022 whole entry partner): as the sequence (Q15022 whole entry partner) above

COc1cc(C)[nH]c(=O)c1CNC(=O)c1c(C)n(C(C)C2CCNC(C(F)(F)F)C2)c2ccccc12 (single isomer, unassigned) [Compound 12, N-((4-methoxy-6-methyl-2-oxo-1,2-dihydropyridin-3-yl)methyl)-2-methyl-1-(1-(2-(trifluoromethyl)piperidin-4-yl)ethyl)-1H-indole-3-carboxamide]
pIC50 [1, 4]: > 7.00

COc1cc(C)[nH]c(=O)c1CNC(=O)c1c(C)n(C(C)C2CCNC(c3ccc(F)cc3)C2)c2ccccc12 (single isomer, unassigned) [Compound 32, 1-(1-(2-(4-fluorophenyl)piperidin-4-yl)ethyl)-N-((4-methoxy-6-methyl-2-oxo-1,2-dihydropyridin-3-yl)methyl)-2-methyl-1H-indole-3-carboxamide]
pIC50 ([1]; 2 nM EZH2, 0.2 μM biotinylated oligonucleosomes, 0.2 μM 3H SAM, 3.6 μM H3K27me3 peptide; read-out: EZH2 nuc BSA Brij 1.5 (IC50)): > 7.00 | pEC50 ([2]; 72 hrs): < 5.70

COc1cc(C)[nH]c(=O)c1CNC(=O)c1c(C)n(C(C)C2CCNC(C(F)(F)F)C2)c2ccccc12 (single isomer, unassigned) [Compound 23, N-((4-methoxy-6-methyl-2-oxo-1,2-dihydropyridin-3-yl)methyl)-2-methyl-1-(1-(2-(trifluoromethyl)piperidin-4-yl)ethyl)-1H-indole-3-carboxamide]
pIC50 [1, 4]: 6.00 to 7.00 | pEC50 ([2]; 72 hrs): < 5.70

COc1cc(C)[nH]c(=O)c1CNC(=O)c1c(C)n(C(C)C2CCN(CC3CC3)C(C(F)(F)F)C2)c2ccccc12 (single isomer, unassigned) [Compound 39, 1-(1-(1-(cyclopropylmethyl)-2-(trifluoromethyl)piperidin-4-yl)ethyl)-N-((4-methoxy-6-methyl-2-oxo-1,2-dihydropyridin-3-yl)methyl)-2-methyl-1H-indole-3-carboxamide]
pIC50 ([1]; read-out: EZH2 nuc BSA Brij 1.5 (IC50); 2 nM EZH2, 0.2 μM biotinylated oligonucleosomes, 0.2 μM 3H SAM, 3.6 μM H3K27me3 peptide): > 7.00 | pEC50 ([2]; 72 hrs): < 5.70

Cc1cc(C)c(CNC(=O)c2c(C)n(C(C)C3CCNC(C(F)(F)F)C3)c3ccccc23)c(=O)[nH]1 (single isomer, unassigned) [Compound 16, N-((4,6-dimethyl-2-oxo-1,2-dihydropyridin-3-yl)methyl)-2-methyl-1-(1-(2-(trifluoromethyl)piperidin-4-yl)ethyl)-1H-indole-3-carboxamide]
pIC50 [1, 4]: > 7.00

COc1cc(C)[nH]c(=O)c1CNC(=O)c1c(C)n(C(C)C2CCNCC2C(F)(F)F)c2ccccc12 (centres unmarked) [Compound 19, N-((4-methoxy-6-methyl-2-oxo-1,2-dihydropyridin-3-yl)methyl)-2-methyl-1-(1-(3-(trifluoromethyl)piperidin-4-yl)ethyl)-1H-indole-3-carboxamide]
pIC50 [1, 4]: > 7.00 | pEC50 ([2]; Homo sapiens, HeLa, 72 h): < 5.70

COc1cc(C)[nH]c(=O)c1CNC(=O)c1c(C)n(C(C)C2CCN(CC(F)(F)F)C(C)C2)c2ccccc12 (single isomer, unassigned) [Compound 42, N-((4-methoxy-6-methyl-2-oxo-1,2-dihydropyridin-3-yl)methyl)-2-methyl-1-(1-(2-methyl-1-(2,2,2-trifluoroethyl)piperidin-4-yl)ethyl)-1H-indole-3-carboxamide]
pIC50 [1, 4]: > 7.00 | pEC50 ([2]; Homo sapiens, HeLa, 72 h): 5.70 to 6.40

COc1cc(C)[nH]c(=O)c1CNC(=O)c1c(C)n(C(C)C2CCNC(C(F)F)C2)c2ccccc12 (single isomer, unassigned) [Compound 36, 1-(1-(2-(difluoromethyl)piperidin-4-yl)ethyl)-N-((4-methoxy-6-methyl-2-oxo-1,2-dihydropyridin-3-yl)methyl)-2-methyl-1H-indole-3-carboxamide]
pIC50 [1, 4]: > 7.00 | pEC50 ([2]; 72 hrs): < 5.70

COc1cc(C)[nH]c(=O)c1CNC(=O)c1c(C)n(C(C)C2CCN(C)C(C(F)(F)F)C2)c2ccccc12 (single isomer, unassigned) [Compound 13, N-((4-methoxy-6-methyl-2-oxo-1,2-dihydropyridin-3-yl)methyl)-2-methyl-1-(1-(1-methyl-2-(trifluoromethyl)piperidin-4-yl)ethyl)-1H-indole-3-carboxamide]
pIC50 [1, 4]: > 7.00 | pEC50 ([2]; Homo sapiens, HeLa, 72 h): 5.70 to 6.40

COc1cc(C)[nH]c(=O)c1CNC(=O)c1c(C)n(C(C)C2CCN(C)c3ccccc32)c2ccccc12 (centres unmarked) [Compound 3, N-((4-methoxy-6-methyl-2-oxo-1,2-dihydropyridin-3-yl)methyl)-2-methyl-1-(1-(1-methyl-1,2,3,4-tetrahydroquinolin-4-yl)ethyl)-1H-indole-3-carboxamide]
pIC50 [1, 4]: > 7.00

COc1cc(C)[nH]c(=O)c1CNC(=O)c1c(C)n(C(C)C2CCN(CC(F)(F)F)C(C)C2)c2ccccc12 (centres unmarked) [Compound 47]
pIC50 [3]: 6.00 to 7.00 | pEC50 ([2]; 72 hrs): < 5.70

COc1cc(C)[nH]c(=O)c1CNC(=O)c1c(C)n(C(C)C2CCNC(CC(F)(F)F)C2)c2ccccc12 (centres unmarked) [Compound 89]
pIC50 [3]: > 7.00 | pEC50 ([2]; 72 hrs): 5.70 to 6.40

CCS(=O)(=O)N1CCC(C(C)n2c(C)c(C(=O)NCc3c(OC)cc(C)[nH]c3=O)c3ccccc32)CC1C (centres unmarked) [Compound 91]
pIC50 [3]: > 7.00 | pEC50 ([2]; Homo sapiens, HeLa, 72 h): < 5.70
